This assay has as its system IL2 promoter. Description: Human IL2 promoter reporter gene assay (RGA) in Jurkat cells. It counts as cell-based. The following applies: […], heading: IL2 reporter gene assay IC50, anti-CD28 mAb + PMA stimulation 5.5 h. As to the method:
Human IL2 Promoter Reporter Gene Assay (RGA) in Jurkat Cells
The transfected Jurkat clone K22 290_H23 was propagated in RPMI 1640 supplemented with 10% heat inactivated fetal calf serum, 50 μM 2-mercaptoethanol and 1 mg/ml Geneticin. The cell concentration should not exceed 1×10e6/ml during culturing. The cells should not exceed passage 30. Prior to the assay the cells were washed and prepared to the concentration of 2×10e6 cells/ml.
Compound dilutions were made as 2×-concentrated solutions then diluted ½ by addition to cells. Two hundred and fifty μl of compound dilution and 250 μl of cells were mixed together in wells of a 96-deep well plate. Cells/compounds premix were incubated 30 min at 37° C. and 5% CO2 directly in the deep well plate.
After pre-incubation of cells with compounds, cells were stimulated with anti-CD28 mAb (clone 15E8) at 3 μg/ml+PMA at 1 μg/ml. Both co-stimulants were diluted in culture medium at a 10×-concentrated solution. 10 μl of co-stimulants were pipetted into the white 96-well plates and 100 μl of cell/compound mix was immediately added in duplicates. The cells were stimulated for 5.5 h at 37° C. and 5% CO2.
After cell stimulation, 50 μl of BriteLitePlus reagent (Perkin Elmer) was added to each well and the bioluminescence was measured with a Wallac EnVision reader (Perkin Elmer).
In general terms: Reporter assays use an easily measured gene product as a stand-in for the process of interest.

On to `O=C(Nc1cnc(-n2nccn2)c(C(F)(F)F)c1)Nc1cnc2cc(Cl)nn2c1-c1ccco1` [Example 63, 1-(6-(2H-1,2,3-triazol-2-yl)-5-(trifluoromethyl)pyridin-3-yl)-3-(2-chloro-7-(furan-2-yl)pyrazolo[1,5-a]pyrimidin-6-yl)urea], for which the IC50 – broadly, the midpoint of a concentration-inhibition curve – is 91 nM. Take `COCCC(OC)c1c(NC(=O)Nc2cnc(-n3nccn3)c(Cl)c2)cnc2cc(Cl)nn12` (stereo not drawn) [Example 64, 1-(5-chloro-6-(2H-1,2,3-triazol-2-yl)pyridin-3-yl)-3-(2-chloro-7-(1,3-dimethoxypropyl)pyrazolo[1,5-a]pyrimidin-6-yl)urea]: the IC50 was 32 nM. In the case of `C[C@@H](OCc1ccccc1)c1c(NC(=O)Nc2cnc(-n3nccn3)c(C(F)(F)F)c2)cnc2cc(Cl)nn12` [Example 65, (R)-1-(6-(2H-1,2,3-triazol-2-yl)-5-(trifluoromethyl)pyridin-3-yl)-3-(7-(1-(benzyloxy)ethyl)-2-chloropyrazolo[1,5-a]pyrimidin-6-yl)urea], the IC50 stood at 72 nM.

Consider `O=C(Nc1cnc(-n2nccn2)c(Cl)c1)Nc1cnc2cc(Cl)nn2c1C1CC12CCOC2` (stereo not drawn) [Example 68, 1-(5-chloro-6-(2H-1,2,3-triazol-2-yl)pyridin-3-yl)-3-(2-chloro-7-(5-oxaspiro[2.4]heptan-1-yl)pyrazolo[1,5-a]pyrimidin-6-yl)urea], for which the IC50 stood at 76 nM.

As to `COc1ncc(NC(=O)Nc2cnc3cc(Cl)nn3c2-c2ccncc2)cc1Cl` [Example 69, 1-(5-chloro-6-methoxypyridin-3-yl)-3-(2-chloro-7-(pyridin-4-yl)pyrazolo[1,5-a]pyrimidin-6-yl)urea], the IC50 came to 206 nM. As for `CN(C)C(=O)c1c(NC(=O)Nc2cnc(-n3nccn3)c(Cl)c2)cnc2cc(Cl)nn12` [Example 70, 2-chloro-6-(3-(5-chloro-6-(2H-1,2,3-triazol-2-yl)pyridin-3-yl)ureido)-N,N-dimethylpyrazolo[1,5-a]pyrimidine-7-carboxamide], the IC50 is 63 nM.

Turning to `COCC1(c2c(NC(=O)Nc3cnc(-n4nccn4)c(Cl)c3)cnc3cc(Cl)nn23)CC1` [Example 76, 1-(5-chloro-6-(2H-1,2,3-triazol-2-yl)pyridin-3-yl)-3-(2-chloro-7-(1-(methoxymethyl)cyclopropyl)pyrazolo[1,5-a]pyrimidin-6-yl)urea], the IC50 stood at 47 nM. The figure for `COCC1(c2c(NC(=O)Nc3ccnc(C(F)(F)F)c3)cnc3cc(Cl)nn23)CC1` [Example 77, 1-(2-chloro-7-(1-(methoxymethyl)cyclopropyl)pyrazolo[1,5-a]pyrimidin-6-yl)-3-(2-(trifluoromethyl)pyridin-4-yl)urea] is 46 nM; for `COCC1(c2c(NC(=O)Nc3cnc(-n4nccn4)c(Cl)c3)cnc3cc(C)nn23)CC1` [Example 78, 1-(5-chloro-6-(2H-1,2,3-triazol-2-yl)pyridin-3-yl)-3-(7-(1-(methoxymethyl)cyclopropyl)-2-methylpyrazolo[1,5-a]pyrimidin-6-yl)urea] it is 927 nM; for `COCC1(c2c(NC(=O)Nc3ccnc(C(F)(F)F)c3)cnc3cc(C)nn23)CC1` [Example 79, 1-(7-(1-(methoxymethyl)cyclopropyl)-2-methylpyrazolo[1,5-a]pyrimidin-6-yl)-3-(2-(trifluoromethyl)pyridin-4-yl)urea] it is 89 nM. With `CC(C)(c1c(NC(=O)Nc2ccnc(C(F)(F)F)c2)cnc2cc(Cl)nn12)C1CCOCC1` [Example 80, 1-(2-chloro-7-(2-(tetrahydro-2H-pyran-4-yl)propan-2-yl)pyrazolo[1,5-a]pyrimidin-6-yl)-3-(2-(trifluoromethyl)pyridin-4-yl)urea] the figure was 46 nM. The figure for `COCC(C)(OC)c1c(NC(=O)Nc2cnc(-n3nccn3)c(Cl)c2)cnc2cc(Cl)nn12` (stereo not drawn) [Example 81, 1-(5-chloro-6-(2H-1,2,3-triazol-2-yl)pyridin-3-yl)-3-(2-chloro-7-(1,2-dimethoxypropan-2-yl)pyrazolo[1,5-a]pyrimidin-6-yl)urea] is 157 nM.

Source of the values: patent publication US10442808B2, “Pyrazolo pyrimidine derivatives and their use as MALT1 inhbitors” (NOVARTIS AG, priority 2014, dated 2019).
